According to PMC9022229, “Induction of Paraptosis by Cyclometalated Iridium Complex-Peptide Hybrids and CGP37157 via a Mitochondrial Ca^2+ Overload Triggered by Membrane Fusion between Mitochondria and the Endoplasmic Reticulum” (Biochemistry, 2022):
Residues, ends and D or L forms follow the SMILES beside them. *: point of attachment. X1 = O=C(COc1ccc(-c2ccccn2)cc1)NCCCCCCCCN*

Experiments:
Assay type in all cases: cell-based
[1] = test system: dynamin-related protein 1 (DRP1); assay: Western blot analysis of DRP1 in Jurkat cells
Description: In a 1.5 mL Eppendorf tube, Jurkat cells (1.0 × 10^6 cells) were incubated in the presence of 4 ([…]), CGP37157 (100 μM for 0–24 h or 0–100 μM for 12 h), and celastrol (0–10 μM for 24 h or 1 μM for 0–24 h) at 37 °C under 5% CO2. After the cells had been washed twice with PBS, the proteins were extracted by using RIPA buffer (Nacalai Tesque) and quantified using a Pierce BCA Protein Assay Kit (Thermo Scientific). Proteins (7.5 μg/well) for MFNs and DRP1 and proteins (5.0 μg/well) for GAPDH were used for sodium dodecyl sulfate–polyacrylamide gel electrophoresis (SDS–PAGE) (7.5% for MFNs and DRP1 and 10% for GAPDH) (Bio-Rad). After SDS–PAGE, the proteins were transferred to a polyvinylidene fluoride membrane (Merck Millipore) by using a semi dry blotter (Bio-Rad). The membrane was blocked with Blocking One solution (Nacalai Tesque) for 30 min at room temperature. After being blocked, the membrane was washed three times with 1× TBST and treated with primary antibodies overnight (at a dilution of 1/1000 for MFNs and DRP1 or 1/2000 for GAPDH) in a signal enhancer HIKARI-solution A (Nacalai Tesque). The membrane was washed three times with 1× TBST and treated with the anti-mouse or anti-rabbit IgG HRP-conjugated secondary antibody (at a dilution of 1/4000 for MFNs and DRP1 or 1/10000 for GAPDH) in 1× TBST for 60 min at room temperature. The protein signal was spotted with a Chemi-Lumi One Ultra solution (Nacalai Tesque) using the ChemiDoc MP system (Bio-Rad).

Jurkat cells [2] = assay: Mitochondria-ER membrane fusion, co-staining with MitoTracker Green and ER-Tracker Red
Description: To verify this hypothesis, mitochondria and the ER were stained with both MitoTracker Green and ER-Tracker Red in the presence of 4, CGP37157, and celastrol (Figure 8). Jurkat cells were stained with MitoTracker Green (0.5 μM) and ER-Tracker Red (1 μM) and then treated with 4 (5 μM) for 10–30 min (time-dependent microscopic images are presented in Figure S5). […] With regard to CGP37157 and celastrol, Jurkat cells were stained with MitoTracker Green (0.5 μM) and ER-Tracker Red (1 μM) and then treated with CGP37157 (100 μM) and celastrol (1 μM) for 1–24 h (Figure 8 and Figure S5).
In a 1.5 mL Eppendorf tube, Jurkat cells (2.0 × 10^5 cells) were stained with MitoTracker Green (0.5 μM) for 1 h at 37 °C under 5% CO2 and then ER-Tracker Red (1 μM) for 1 h at 37 °C under 5% CO2 in 10% FBS/RPMI 1640 medium (100 μL). After being washed with PBS, the cells were treated with 4 (5 μM) in 10% FBS/RPMI 1640 medium (100 μL) for 0–30 min at 37 °C under 5% CO2. For CGP37157 and celastrol, Jurkat cells were treated with CGP37157 (100 μM) or celastrol (1 μM) in 10% FBS/RPMI 1640 medium (100 μL) for 0–24 h, after which the cells were stained with MitoTracker Green (0.5 μM) for 1 h at 37 °C under 5% CO2 and then ER-Tracker Red (1 μM) for 1 h at 37 °C under 5% CO2 in PBS. The cells were washed with PBS and observed by confocal microscopy (Fluoview, FV-1000, Olympus) using a Greiner CELLview dish (35 mm × 10 mm). Excitation at 473 nm and emission from 485 to 545 nm were used for MitoTracker Green. Excitation at 559 nm and emission from 570 to 620 nm were used for ER-Tracker Red. The exposure time was 20 μs/pixel.

Jurkat cells [3] = assay: Cytosolic Ca2+ by flow cytometry with Rhod-4
Description: Other characteristic phenomena of paraptosis such as a mitochondrial Ca^2+ overload and loss of mitochondrial membrane potential (ΔΨm) induced by CGP37157 were also examined. Intracellular Ca^2+ concentrations were measured by flow cytometry using red-emitting Ca^2+ probes, Rhod-2 (a mitochondrial Ca^2+ probe) and Rhod-4 (a cytosolic Ca^2+ probe). Jurkat cells were stained with Rhod-2/AM or Rhod-4/AM (at 5 μM) and then treated with CGP37157 (100 μM) or 4 (5 μM) for a given period of incubation, immediately after which the emission intensity of Rhod-2 and Rhod-4 was measured by flow cytometry. […]
In a 1.5 mL Eppendorf tube, Jurkat cells (2.0 × 10^5 cells) were incubated in the presence of Rhod-2/AM (5 μM, 100 μL) or Rhod-4/AM (5 μM, 100 μL) in 10% FBS/RPMI 1640 medium for 30 min at 37 °C under 5% CO2 and then treated with 4 (5 μM, 0–30 min) or CGP37157 (100 μM, 0–6 h) in 10% FBS/RPMI 1640 medium (100 μL) for 30 min at 37 °C under 5% CO2. Immediately after the treatment, 10% FBS/RPMI 1640 medium (300 μL) was added to the cells and the samples were analyzed on a flow cytometer (FACSCalibur cytometer, Becton). The data were analyzed on FlowJo software (FlowJo, LCC).

Jurkat cells [4] = assay: Mitochondrial membrane potential (ΔΨm) by DilC1(5) confocal microscopy
Description: The mitochondrial membrane potential (ΔΨm) was measured by means of DilC1(5) (1,1′,3,3,3′,3′-hexamethylindodicarbocyanine iodide), the emission intensity of which responds to ΔΨm.[95] Jurkat cells were treated with CGP37157 (100 μM) for 1–12 h, stained with DilC1(5) (5 μM) for 30 min, and observed via confocal microscopy. […] The decrease in ΔΨm with 4 was also observed by confocal microscopy (Figure 6B).
In a 1.5 mL Eppendorf tube, Jurkat cells (2.0 × 10^5 cells) were stained with DilC1(5) (500 nM, 100 μL) in 10% FBS/RPMI 1640 medium for 30 min at 37 °C under 5% CO2, followed by the treatment with 4 (5 μM, 100 μL) in the medium for 0–60 min at 37 °C under 5% CO2. For CGP37157, Jurkat cells (2.0 × 10^5 cells) were treated with CGP37157 (100 μM, 100 μL) in 10% FBS/RPMI 1640 medium for 0–12 h at 37 °C under 5% CO2, followed by the treatment with DilC1(5) (500 nM, 100 μL) in PBS. The cells were washed with PBS and observed by confocal microscopy (Fluoview, FV-1000, Olympus) using a Greiner CELLview dish (35 mm × 10 mm). Excitation at 405 nm and emission from 470 to 520 nm were used for 4. Excitation at 635 nm and emission from 650 to 750 nm were used for DilC1(5). The exposure time was 20 μs/pixel.

NCCCC[C@H](NC(=O)[C@H](CCCCN)NC(=O)[C@@H](N)CCCCN)C(=O)NCC(=O)NCC(=O)NCCCCCCCCNC(=O)COc1ccc(-c2ccccn2)cc1 [compound 4] (H-KKKGG-X1)
Expression level of DRP1 (Figure 11A) ([1]; 4 at 5 μM, 30 min to 1 h): somewhat upregulated
DRP1 band intensity relative to absence of compound ([1]; Figure S8A, 4 at 1 µM, 1 h per legend): 2.0
DRP1 band intensity relative to absence of compound ([1]; Figure S8A, 4 at 2.5 µM, 1 h per legend): 2.5
DRP1 band intensity relative to absence of compound ([1]; Figure S8A, 4 at 5 µM, 1 h per legend): 2.6
DRP1 band intensity relative to absence of compound ([1]; Figure S8A, 4 at 10 µM, 1 h per legend): 2.6
DRP1 band intensity relative to absence of compound ([1]; Figure S8A, 4 at 20 µM, 1 h per legend): 1.0
Overlap of MitoTracker Green and ER-Tracker Red emission (mitochondria-ER membrane fusion) (Jurkat cells [2]; 4 at 5 μM, 10 min): extensively overlapped
Emission of Rhod-4 (cytosolic Ca2+) (Jurkat cells [3]; 4 at 5 μM, 10–30 min): small emission enhancement
Emission of DilC1(5) (ΔΨm) (Jurkat cells [4]; 4 at 5 μM, 20 min after treatment): decrease in emission intensity

O=C1CSC(c2ccccc2Cl)c2cc(Cl)ccc2N1 (stereo not drawn) [CGP37157]
Expression level of DRP1 (Figure 11B) ([1]; CGP37157 100 μM, 1–6 h): somewhat upregulated
DRP1 band intensity relative to absence of compound ([1]; Figure S8B, CGP37157 10 µM, 12 h): 1.6
DRP1 band intensity relative to absence of compound ([1]; Figure S8B, CGP37157 20 µM, 12 h): 1.7
DRP1 band intensity relative to absence of compound ([1]; Figure S8B, CGP37157 50 µM, 12 h): 1.3
DRP1 band intensity relative to absence of compound ([1]; Figure S8B, CGP37157 80 µM, 12 h): 1.4
DRP1 band intensity relative to absence of compound ([1]; Figure S8B, CGP37157 100 µM, 12 h): 0.89
Overlap of MitoTracker Green and ER-Tracker Red emission (mitochondria-ER membrane fusion) (Jurkat cells [2]; CGP37157 100 μM, 6 h): extensively overlapped
Emission of Rhod-4 (cytosolic Ca2+) (Jurkat cells [3]; CGP37157 100 μM, 1–6 h): small emission enhancement
Emission of DilC1(5) (ΔΨm) (Jurkat cells [4]; CGP37157 100 μM, 6 h): quenched
